Measurements published in the supplement of paper PMC10307832.

Assays:
Assay in all cases: relative viability (nuclei count vs DMSO), 5 days (fraction); higher = more cells survive
Linsitinib + Foretinib = compound: C[C@]1(O)C[C@@H](c2nc(-c3ccc4ccc(-c5ccccc5)nc4c3)c3c(N)nccn32)C1 [Linsitinib] + COc1cc2c(Oc3ccc(NC(=O)C4(C(=O)Nc5ccc(F)cc5)CC4)cc3F)ccnc2cc1OCCCN1CCOCC1 [Foretinib] (partner 0.25 µM)
Method in brief: (§1)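 After 5 days of treatment, lung cancer cells in 1536-well plates were fixed and stained in a single step (final 0.05% Triton X-100, 1% formaldehyde, 1 ug/ml Hoechst) and their nuclei counted on 4× images. Treatment had been applied by pin tool the day after seeding as one drug alone or as a fixed anchor-drug dose with five library-drug doses (not always all listed) in √10 steps. Relative viability is the nuclei count of treated wells divided by that of vehicle wells, and values are medians of duplicate plates.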

Ispinesib + Dasatinib = compound: Cc1ccc(C(=O)N(CCCN)[C@@H](c2nc3cc(Cl)ccc3c(=O)n2Cc2ccccc2)C(C)C)cc1 [Ispinesib] + Cc1nc(Nc2ncc(C(=O)Nc3c(C)cccc3Cl)s2)cc(N2CCN(CCO)CC2)n1 [Dasatinib] (partner 0.075 µM)
Method in brief: as §1

Ispinesib + Phenformin = compound: Cc1ccc(C(=O)N(CCCN)[C@@H](c2nc3cc(Cl)ccc3c(=O)n2Cc2ccccc2)C(C)C)cc1 [Ispinesib] + N=C(N)NC(=N)NCCc1ccccc1 [Phenformin] (partner 250 µM)
Method in brief: as §1

Linsitinib + Pictilisib = compound: C[C@]1(O)C[C@@H](c2nc(-c3ccc4ccc(-c5ccccc5)nc4c3)c3c(N)nccn32)C1 [Linsitinib] + CS(=O)(=O)N1CCN(Cc2cc3nc(-c4cccc5[nH]ncc45)nc(N4CCOCC4)c3s2)CC1 [Pictilisib] (partner 1 µM)
Method in brief: as §1

| Cell Line | relative viability (Linsitinib + Foretinib; first compound 0.01 µM) | relative viability (Linsitinib + Foretinib; first compound 0.03162 µM) | relative viability (Linsitinib + Foretinib; first compound 0.1 µM) | relative viability (Linsitinib + Foretinib; first compound 1 µM) | relative viability (Ispinesib + Dasatinib; first compound 0.001 µM) | relative viability (Ispinesib + Dasatinib; first compound 0.003162 µM) | relative viability (Ispinesib + Dasatinib; first compound 0.01 µM) | relative viability (Ispinesib + Dasatinib; first compound 0.03162 µM) | relative viability (Ispinesib + Dasatinib; first compound 0.1 µM) | relative viability (Ispinesib + Phenformin; first compound 0.001 µM) | relative viability (Ispinesib + Phenformin; first compound 0.003162 µM) | relative viability (Ispinesib + Phenformin; first compound 0.01 µM) | relative viability (Ispinesib + Phenformin; first compound 0.03162 µM) | relative viability (Ispinesib + Phenformin; first compound 0.1 µM) | relative viability (Linsitinib + Pictilisib; first compound 0.01 µM) | relative viability (Linsitinib + Pictilisib; first compound 0.03162 µM) | relative viability (Linsitinib + Pictilisib; first compound 0.1 µM) | relative viability (Linsitinib + Pictilisib; first compound 0.3162 µM) | relative viability (Linsitinib + Pictilisib; first compound 1 µM) | relative viability (Linsitinib + Foretinib; first compound 0.3162 µM) |
| --- | --- | --- | --- | --- | --- | --- | --- | --- | --- | --- | --- | --- | --- | --- | --- | --- | --- | --- | --- | --- |
| NCI-H2009 | 1.25 | 1.18 | 1.26 | 1.24 | 0.264 | 0.325 | 0.271 | 0.142 | 0.144 | 0.519 | 0.512 | 0.451 | 0.312 | 0.186 | 0.946 | 0.796 | 0.833 | 0.101 | 0.687 |  |
| NCI-H522 |  |  |  |  | 0.723 | 1.11 | 1.05 | 0.634 | 0.401 | 0.613 | 0.627 | 0.694 | 0.603 | 0.349 |  |  |  |  |  |  |
| NCI-H441 | 0.928 | 1.18 | 0.834 | 0.492 | 0.713 | 0.634 | 0.453 | 0.293 | 0.266 | 0.977 | 0.823 | 0.84 | 0.247 | 0.301 | 0.51 | 0.683 | 0.498 | 0.413 | 0.412 | 0.835 |
| NCI-H1623 | 0.871 | 0.913 | 0.85 | 0.671 | 0.63 | 0.63 | 0.523 | 0.461 | 0.468 | 0.587 | 0.597 | 0.617 | 0.563 | 0.396 |  |  |  |  |  |  |
| NCI-H1437 | 1.18 | 1.11 | 1.25 | 1.25 | 0.45 | 0.512 | 0.395 | 0.35 | 0.166 | 0.326 | 0.335 | 0.371 | 0.251 | 0.189 | 0.449 | 0.53 | 0.455 | 0.467 | 0.57 | 0.822 |
| PC-14 | 0.888 | 0.912 | 0.995 | 0.901 | 0.221 | 0.188 | 0.0739 | 0.0649 | 0.133 | 0.607 | 0.755 | 0.338 | 0.122 | 0.0821 | 0.691 | 0.701 | 0.75 | 0.598 | 0.5 | 0.626 |
| LCLC-103H | 0.75 | 0.771 | 0.751 | 0.704 | 0.553 | 0.506 | 0.602 | 0.302 | 0.244 | 0.34 | 0.389 | 0.366 | 0.293 | 0.269 | 0.686 | 0.566 | 0.596 | 0.718 | 0.535 | 0.709 |
| COR-L23 | 0.892 | 0.996 | 0.905 | 0.861 | 0.564 | 0.498 | 0.474 | 0.0917 | 0.172 | 0.437 | 0.444 | 0.448 | 0.123 | 0.133 | 0.769 | 0.924 | 0.652 | 0.393 | 0.341 | 0.834 |
| H3255 | 0.796 | 0.907 | 0.944 | 0.976 | 0.316 | 0.419 | 0.357 | 0.307 | 0.244 | 0.347 | 0.37 | 0.333 | 0.259 | 0.259 | 0.571 | 0.52 | 0.566 | 0.468 | 0.45 | 0.682 |
| NCI-H2126 | 1.11 | 1.28 | 1.05 | 1.06 | 0.671 | 0.658 | 0.768 | 0.566 | 0.413 | 0.516 | 0.531 | 0.533 | 0.433 | 0.263 | 0.489 | 0.486 | 0.459 | 0.389 | 0.359 | 1.06 |
| HCC-366 | 0.95 | 0.996 | 0.907 | 0.956 | 0.701 | 0.74 | 0.733 | 0.704 | 0.0265 | 0.635 | 0.633 | 0.657 | 0.692 | 0.0242 | 0.127 | 0.0857 | 0.0909 |  | 0.108 | 0.932 |
| LU99A | 0.766 | 0.839 | 0.838 | 0.662 | 0.676 | 0.519 | 0.558 | 0.363 | 0.203 | 0.892 | 0.837 | 0.965 | 0.373 | 0.235 | 0.291 | 0.347 | 0.315 | 0.204 | 0.242 | 0.553 |
| HCC-44 |  |  |  |  |  |  |  |  |  | 0.252 | 0.175 | 0.146 | 0.1 | 0.0891 | 0.579 | 0.634 | 0.66 | 0.317 | 0.311 |  |
| EBC-1 | 0.115 | 0.109 | 0.0995 | 0.104 |  |  |  |  |  |  |  |  |  |  | 0.499 | 0.347 | 0.381 | 0.299 | 0.246 | 0.106 |
| NCI-H1703 | 0.356 |  | 0.379 | 0.267 |  |  |  |  |  |  |  |  |  |  | 0.29 |  | 0.216 | 0.28 | 0.234 | 0.513 |
| NCI-H1299 | 1.07 | 1.11 | 1.13 | 1.11 |  |  |  |  |  |  |  |  |  |  | 0.864 | 0.794 | 0.766 | 0.796 | 0.648 | 1.12 |
| A549 | 0.97 | 0.953 | 0.999 | 0.875 |  |  |  |  |  | 0.12 | 0.18 | 0.899 | 0.0923 | 0.048 | 0.514 | 0.442 | 0.344 | 0.242 | 0.273 | 0.695 |
| NCI-H2342 | 1.06 | 1.05 | 1.06 | 0.959 | 0.284 | 0.305 | 0.328 | 0.284 | 0.27 | 0.671 | 0.634 | 0.685 | 0.523 | 0.378 |  |  |  |  |  | 1.01 |
| SW 900 | 0.894 | 1.07 | 0.881 | 0.503 | 0.561 | 0.654 | 0.782 | 0.246 | 0.196 | 0.619 | 0.41 | 0.812 | 0.427 | 0.21 |  |  |  |  |  | 0.857 |
| Calu-6 | 0.826 | 0.768 | 0.837 | 0.726 |  |  |  |  |  |  |  |  |  |  | 0.878 | 0.805 | 0.916 | 0.748 | 0.716 | 0.799 |
